Measured values taken from patent US20050245452A1, “Pharmaceutical use of novispirins” (Novozymes A/S, priority 2004, published 2005).
Ends that are not written are not given here.

Columns and labels:
[1] = system: Staphylococcus aureus (ATCC 25923); test: Staphylococcus aureus wound infection in pigs (wound chambers, 4 hour time course); assay type: in vivo, Göttinger minipigs; settings: 100 micrograms/ml, 1 ml applied
Experimental: The bacterial strain, Staphylococcus aureus, used in the study was ATCC 25923. The amino acid sequence of Novispirin G10 is shown in SEQ ID NO: 16.
Novispirin G10 was diluted in 0.01% acetic acid containing 0.1% BSA with a final concentration of 1 mg (substrate)/ml (solution); 100 micrograms/ml; 10 micrograms/ml and 1 microgram/ml. The carrier control was 0.01% acetic acid containing 0.1% BSA. As a positive control was used Synthetic Protegrin 1 (Charité, Institut f. Biochemie d. Humboldt Universität Berlin) diluted in 0.01% acetic acid containing 0.1% BSA with a final concentration of 100 micrograms/ml.
The chambers are made of one piece of titanium, have a screw top cover (also made of titanium) and were built in teamwork with Cranio Construct Bochum. The chambers have a height of 14 mm, an inner diameter of 25 mm and an outer diameter of 32 mm without baseplate (with baseplate: 50 mm).
After providing permission to conduct experiments with vertebrates in compliance with German animal protection laws, Göttinger minipigs (Fa. Ellegaard, Dalmose, Denmark; female, 6 months old, 25-30 kg weight) were chosen to implant the chambers on. The pigs were kept at least 2 weeks in the stable, fed a standard porcine diet and housed at 20° C. to 30° C. in an atmosphere of approximately 65% humidity with a light cycle of 12 hours on and 12 hours off. The animals used for this study appeared, during the experiments, clinically healthy—rectal temperature and body weight remained normal over the observed period.
Before wounding the skin was surgically prepared, washed with soap and disinfected with Octenisept (S&M, Norderstedt, Germany) for five minutes. Twelve BO-Chambers were implanted on the pigs back and flank between the base of the scapula and the iliac crest. The wounds were spaced a minimum of 5 cm apart and were created in four rows parallel to the columna vertebralis, two rows on each side of the columna vertebrtalis. The exact size and shape of the wounds were ensured by a special custom-made “round-scalpel” (also built in teamwork with Cranio Construct Bochum), which has a diameter of 33 mm. Epidermal, dermal subcutaneous tissues were removed, possible bleedings stanched by bipolar diathermy. The chambers were placed with an additionally secant v-incision at positions 6 respectively 12 o'clock on the musculus thoracicus longus fascia and the muscle fascia of the external ripcage muscles. The incisions were sutured with 2/0 Monocryl followed by the closure of the chambers. Povidone-iodine salve (Betaisodonna-salve, Mundipharma, Austria) was smothered on the wound edges. The chambers were dressed with paraffin gauze (Jelonet, Smith & Nephew, Lohfelden, Germany) and sterile compresses. Dressings were changed every second day under sedation (as described above).
Bacterial Background of each chamber was measured every second day, to detect potential contamination. Only one contaminated chamber was detected. Seven days post operation ten chambers were inoculated with bacteria.
For bacteria progeny Staphylococcus aureus (ATCC 25923) was plated on LB-Agar plate and incubated at 37° C. for 18 hours. One colony was picked and transfered into 3 ml LB-Medium for over night culture at 37° C. at 300 rpm. Over night culture was diluted in 50 ml fresh LB-Medium and incubated for 2.5 hours at 37° C. at 200 rpm.
Bacteria were pelleted, 4000 rpm, 5 min, Mergafuge 1.0 R (Heraeus, Hanau, Germany), and resuspended in PBS. Amount of containg bacteria was detremined by OD600 nm-measurement and calculated as follows: Colony forming Unit/ml=OD600 nm×2.5×10^8 (bacteria)
To inoculate one chamber 5×10^8 were used.
The establishment of the infection was proven by the measurement of bacterial counts per chamber. All inoculated chambers were infected after two days. Chamber No. 2 keeps bacteria free.
At day four after infection the antimicrobial effect of the testing substrate was measured in a time course of 4 hours in duration. […]

[2] = system: P. acnes (erythromycin sensitive); test: MIC on Propionebacterium acnes, erythromycin sensitive strain; assay type: cell-based
Experimental: (§1) Minimal Inhibitory Concentration (MIC) of Novispirin G10 (SEQ ID NO: 16) was evaluated against P. acnes. Two strains were tested—one of which is clinically resistant to clindamycin and erythromycin.

[3] = system: P. acnes (erythromycin resistant); test: MIC on Propionebacterium acnes, erythromycin resistant strain; assay type: cell-based; settings: clinically resistant to clindamycin and erythromycin
Experimental: as §1

Compound | Mean CFU per ml sample volume (chamber fluid) ([1]; 0 hours) | Mean CFU per ml sample volume (chamber fluid) ([1]; 1 hour) | Mean CFU per ml sample volume (chamber fluid) ([1]; 2 hours) | Mean CFU per ml sample volume (chamber fluid) ([1]; 3 hours) | Mean CFU per ml sample volume (chamber fluid) ([1]; 4 hours) | Minimal Inhibitory Concentration (MIC) [2] | Minimal Inhibitory Concentration (MIC) [3]
Protegrin 1: Synthetic Protegrin 1 (Charité, Humboldt Universität Berlin), used as a positive control at 100 micrograms/ml (RGGRLCYCRRRFCVCVGR; ends and bridges not checked; cysteine pairing not given here; UniProt P32194 131-148, looked up) [reference compound] | 13200000 CFU/ml | 88667 CFU/ml | 12800 CFU/ml | 3525 CFU/ml | 129000 CFU/ml | – | –
CC[C@H]1OC(=O)[C@H](C)[C@@H](O[C@H]2C[C@@](C)(OC)[C@@H](O)[C@H](C)O2)[C@H](C)[C@@H](O[C@@H]2O[C@H](C)C[C@H](N(C)C)[C@H]2O)[C@](C)(O)C[C@@H](C)C(=O)[C@H](C)[C@@H](O)[C@]1(C)O [Erythromycin] | – | – | – | – | – | 0.25 | 64
CCC[C@@H]1C[C@@H](C(=O)N[C@@H]([C@H]2O[C@H](SC)[C@H](O)[C@@H](O)[C@H]2O)[C@H](C)Cl)N(C)C1 [Clindamycin] | – | – | – | – | – | 0.12 | 64
